One assay has as its system HCV replicon. The assay is described as follows: HCV replicon assay in human hepatoma Huh-7 cell line (luciferase readout). In kind it is cell-based. The note with it: 2 μM; Huh-7 HCV replicon cells, 3 days incubation; inhibition of viral replication. The procedure:
The anti-HCV activity of the compounds of this invention was tested in a human hepatoma Huh-7 cell line harboring a HCV replicon. The assay comprised the following steps:
Serial dilution was performed in 100% DMSO in a 384-well plate. A solution containing a compound at 225-fold concentration of the starting final serial dilution concentration was prepared in 100% DMSO and 15 uL added to the pre-specified wells in column 3 or 13 of a polypropylene 384-well plate. The rest of the 384-well plate was filled with 10 uL 100% DMSO except for columns 23 and 24, where 10 uL of 500 uM a HCV protease inhibitor (ITMN-191) in 100% DMSO was added. The HCV protease inhibitor was used a control of 100% inhibition of HCV replication. The plate was then placed on a Biomek FX Workstation to start the serial dilution. The serial dilution was performed for ten cycles of 3-fold dilution from column 3 to 12 or from column 13 to 22.
To each well of a black polypropylene 384-well plate, 90 μL of cell media containing 1600 suspended Huh-7 HCV replicon cells was added with a Biotek uFlow Workstation. A volume of 0.4 μL of the compound solution was transferred from the serial dilution plate to the cell culture plate on a Biomek FX Workstation. The DMSO concentration in the final assay condition was 0.44%. The plates were incubated for 3 days at 37° C. with 5% CO2 and 85% humidity.
a) Assessment of cytotoxicity: The media in the 384-well cell culture plate was aspirated with a Biotek EL405 plate-washer. A volume of 50 μL of a solution containing 400 nM Calcein AM in 100% PBS was added to each well of the plate with a Biotek uFlow Workstation. The plate was incubated for 30 minutes at room temperature before the fluorescence signal ([…]) was measured with a Perkin Elmer Envision Plate Reader.
b) Assessment of inhibition of viral replication: The calcein-PBS solution in the 384-well cell culture plate was aspirated with a Biotek EL405 plate-washer. A volume of 20 μL of Dual-Glo luciferase buffer (Promega, Dual-Glo Luciferase Assay Reagent, cat. #E298B) was added to each well of the plate with a Biotek uFlow Workstation. The plate was incubated for 10 minutes at room temperature. A volume of 20 μL of a solution containing 1:100 mixture of Dual-Glo Stop & Glo substrate (Promega, Dual-Glo Luciferase Assay Reagent, cat. #E313B) and Dual-Glo Stop & Glo buffer (Promega, Dual-Glo Luciferase Assay Reagent, cat #E314B) was then added to each well of the plate with a Biotek uFlow Workstation. The plate was incubated at room temperature for 10 minutes before the luminescence signal was measured with a Perkin Elmer Envision Plate Reader.
The percent cytotoxicity was determined by calcein AM conversion to fluorescent product. The average fluorescent signal from the DMSO control wells were defined as 100% nontoxic. The individual fluorescent signal from testing compound treated well was divided by the average signal from DMSO control wells and then multiplied by 100% to get the percent viability. The percent anti-HCV replication activity was determined by the luminescence signal from the testing well compared to DMSO controls wells. The background signal was determined by the average luminescence signal from the HCV protease inhibitor treated wells and was subtracted from the signal from the testing wells as well as the DMSO control wells. Following 3-fold serial dilutions, the EC50 and CC50 values were calculated by fitting % inhibition at each concentration to the following equation: % inhibition=100%/[(EC50/[I])^b+1]
Where b is Hill's coefficient. See, for reference, Hill, A. V., The Possible Effects of the Aggregation of the Molecules of Haemoglobin on its Dissociation Curves, J. Physiol. 40: iv-vii. (1910).
% inhibition values at a specific concentration, for example 2 μM, can also be derived from the formula above.
For orientation: % inhibition means the percentage by which the read-out fell short of the control. On to `CC1=CCC(C(=O)N(c2cc(C#CC(C)(C)C)sc2C(=O)O)[C@H]2CC[C@](O)(CO[C@H]3CCOC3)CC2)[C@H](C)C1` (single isomer, unassigned) [Compound 5B, 5-(3,3-dimethyl-but-1-ynyl)-3-{(4,6R-dimethyl-cyclohex-3-enecarbonyl)-[4-hydroxy-4-(tetrahydro-furan-3-yloxymethyl)-cyclohexyl]-amino}-thiophene-2-carboxylic acid], for which the “% inhibition at 2 μM” value is reported as 99.95%.

The assay is the same for the next values; noted with them: Hepatitis C virus, Huh-7, 72 h, 2 μM; Huh-7 HCV replicon cells, 3 days incubation; inhibition of viral replication; read-out: % inhibition at 2 μM.
A word on the inhibition: it is the relative decrease from the control value, in per cent. For the compound `COC(=O)c1sc(C#CC(C)(C)C)cc1N(C(=O)[C@H]1CC=C(C)C[C@@H]1C)[C@H]1CC[C@](O)(CO[C@H]2CCOC2)CC1` [Compound 17], the inhibition at 2 µM worked out at 78.8%.

Turning to `CC1=CC[C@@H](C(=O)N(c2cc(C#CC(C)(C)C)sc2C(=O)O)[C@H]2CC[C@](O)(CO[C@H]3CCOC3)CC2)CC1` [Compound 8], the inhibition at 2 µM is 99.9%. Regarding `CC1=CC[C@H](C(=O)N(c2cc(C#CC(C)(C)C)sc2C(=O)O)[C@H]2CC[C@](O)(CO[C@H]3CCOC3)CC2)CC1` [Compound 9], the inhibition at 2 µM came to 100%. On the same count and under the same terms, as for `CC1=CCC(C(=O)N(c2cc(C#CC(C)(C)C)sc2C(=O)O)[C@H]2CC[C@](O)(CO[C@H]3CCOC3)CC2)[C@H](C)C1` (single isomer, unassigned) [Compound 5A, 5-(3,3-dimethyl-but-1-ynyl)-3-{(4,6R-dimethyl-cyclohex-3-enecarbonyl)-[4-hydroxy-4-(tetrahydro-furan-3-yloxymethyl)-cyclohexyl]-amino}-thiophene-2-carboxylic acid], the figure is 100%; as for `CC1=CC[C@H](C(=O)N(c2cc(C#CC(C)(C)C)sc2C(=O)O)[C@H]2CC[C@](O)(CO[C@@H]3CCOC3)CC2)CC1` [Compound 10], 100%.

Consider `[2H]C([2H])([2H])C(C#Cc1cc(N(C(=O)[C@H]2CC=C(C)CC2)C2CCC(O)(CO[C@H]3CCOC3)CC2)c(C(=O)O)s1)(C([2H])([2H])[2H])C([2H])([2H])[2H]` (stereo partly shown) [Compound 24], for which the inhibition at 2 µM worked out at 100%. Take `CC1=CC[C@H](C(=O)N(c2cc(C#CC(C)(C)C)sc2C(=O)O)[C@H]2CC[C@](O)(CO[C@@H]3CCOC3)CC2)[C@@H](C)C1` [Compound 18]: the inhibition at 2 µM was found to be 100%. In the case of `CC(C)(C)C#Cc1cc(N(C(=O)[C@H]2CC[C@H](C)CC2)[C@H]2CC[C@@](O)(CO[C@H]3CCOC3)CC2)c(C(=O)O)s1` [Compound 4], the inhibition at 2 µM was 99.6%. Same read-out and setting: the same measure for `CC(C)(C)C#Cc1cc(N(C(=O)[C@H]2CC[C@H](C)CC2)[C@H]2CC[C@](O)(CO[C@H]3CCOC3)CC2)c(C(=O)O)s1` [Compound 3, 5-(3,3-Dimethyl-but-1-ynyl)-3-[[4-hydroxy-4-(tetrahydrofuran-3S-yloxymethyl)-cyclohexyl]-(4-methyl-cyclohexanecarbonyl)-amino]-thiophene-2-carboxylic acid]: 100%; for `CC(C)(C)C#Cc1cc(N(C(=O)[C@H]2CC[C@H](C)CC2)[C@H]2CC[C@](O)(CO[C@@H]3CCOC3)CC2)c(C(=O)O)s1` [Compound 2, 5-(3,3-Dimethyl-but-1-ynyl)-3-[[4-hydroxy-4-(tetrahydrofuran-3R-yloxymethyl)-cyclohexyl]-(4-methyl-cyclohexanecarbonyl)-amino]-thiophene-2-carboxylic acid]: 100%; for `CC1=CCC(C(=O)N(c2cc(C#CC(C)(C)C)sc2C(=O)O)[C@H]2CC[C@](O)(CO[C@H]3CCOC3)CC2)[C@@H](C)C1` (stereo partly drawn) [Compound 6, 5-(3,3-dimethyl-but-1-ynyl)-3-{(4,6S-dimethyl-cyclohex-3-enecarbonyl)-[4-hydroxy-4-(tetrahydro-furan-3(S)-yloxymethyl)-cyclohexyl]-amino}-thiophene-2-carboxylic acid]: 99.9%.

`CC(C)(C)C#Cc1cc(N(C(=O)[C@H]2CC[C@H](C)CC2)C2CCC(O)(COc3cccnc3)CC2)c(C(=O)O)s1` (stereo partly shown) [Compound 1, 5-(3,3-Dimethylbut-1-ynyl)-3-(N-(4-hydroxy-4-((pyridin-3-yloxy)methyl)cyclohexyl)-4-methylcyclohexanecarboxamido)thiophene-2-carboxylic acid]: the inhibition at 2 µM came to 99.9%. In the case of `CC1=CC[C@@H](C(=O)N(c2cc(C#CC(C)(C)C)sc2C(=O)O)[C@H]2CC[C@](O)(CO[C@@H]3CCOC3)CC2)CC1` [Compound 7], the inhibition at 2 µM was 100%.

On to `CC1=CC[C@H](C(=O)N(c2cc(C#CC(C)(C)CO)sc2C(=O)O)[C@H]2CC[C@](O)(CO[C@H]3CCOC3)CC2)CC1` [Compound 29, 5-(4-hydroxy-3,3-dimethylbut-1-ynyl)-3-((R)-N-((1R,4S)-4-hydroxy-4-(((S)-tetrahydrofuran-3-yloxy)methyl)cyclohexyl)-4-methylcyclohex-3-enecarboxamido)thiophene-2-carboxylic acid], for which the inhibition at 2 µM is 100%.

Still in this assay, the particulars now being: Hepatitis C virus, Huh-7, 72 h, read-out: % inhibition at 2 μM.
As for `CC1=CC[C@H](C(=O)N(c2cc(C#CC(C)(C)C)sc2C(=O)O)[C@H]2CC[C@](O)(CO[C@H]3CCOC3)CC2)[C@@H](C)C1` [Compound 16], the inhibition at 2 µM was 100%.

Source of the values: patent US9321753B2, “Inhibitors of Flaviviridae viruses” (Gilead Sciences, Inc., priority 2010, dated 2016).
